This passage reports IC50 results from patent US7622482B2, “Chemical compounds” (AstraZeneca, priority 2005, dated 2009).

A word on the IC50: it is the concentration needed to halve the response being measured.

T1 sequence (P04629 442-796): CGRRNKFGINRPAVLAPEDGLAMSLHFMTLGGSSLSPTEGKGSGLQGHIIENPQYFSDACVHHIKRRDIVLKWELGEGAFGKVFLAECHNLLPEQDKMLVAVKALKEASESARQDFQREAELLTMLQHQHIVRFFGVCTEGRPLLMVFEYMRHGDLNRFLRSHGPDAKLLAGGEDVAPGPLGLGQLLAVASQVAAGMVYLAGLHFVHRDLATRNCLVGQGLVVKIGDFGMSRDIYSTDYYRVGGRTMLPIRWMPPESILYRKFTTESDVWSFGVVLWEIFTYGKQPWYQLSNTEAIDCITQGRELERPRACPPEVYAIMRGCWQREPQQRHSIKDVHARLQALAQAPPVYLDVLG

The test concerns the target T1, human Trk A kinase (Homo sapiens, UniProt P04629).
T1 construct: His; made in house; host or cells: SF9 insect cells
The experiment in a line: Trk A kinase assay (Alphascreen). The class given is biochemical. Conditions: intracellular domain of HIS-tagged human Trk A, 70 μM ATP, 20 minutes, room temperature, read-out: Trk inhibitory activity IC50. As to the method: Trk A kinase activity was measured for its ability to phosphorylate synthetic tyrosine residues within a generic polypeptide substrate using an Amplified Luminescent Proximity Assay (Alphascreen) technology (PerkinElmer, 549 Albany Street, Boston, Mass.).
To measure Trk A kinase activity, the intracellular domain of a HIS-tagged human Trk A kinase (amino acids 442-796 of Trk A, Swiss-Prot Primary Accession Number P04629) was expressed in SF9 cells and purified using standard nickel column chromatography. After incubation of the kinase with a biotinylated substrate and adenosine triphosphate (ATP) for 20 minutes at room temperature, the kinase reaction was stopped by the addition of 30 mM ethylenediaminetetraacetic acid (EDTA). The reaction was performed in 384 well microtitre plates and the reaction products were detected with the addition of strepavidin coated Donor Beads and phosphotyrosine-specific antibodies coated Acceptor Beads using the EnVision Multilabel Plate Reader after an overnight incubation at room temperature.
(In general: Bead proximity is the source of the signal in Alpha formats.)
As to `C[C@@H](c1ccc(F)cc1)n1cnc2ccc(Nc3cc(C4CC4)[nH]n3)nc21` [Example 6, (S)—N-(5-Cyclopronyl-1H-pyrazol-3-yl)-3-(1-(4-fluorophenyl)ethyl)-3H-imidazo[4,5-b]pyridin-5-amine], the IC50 is 49 nM. Turning to `CC(C)Oc1cc(Nc2ncc3ncn([C@@H](C)c4ccc(F)cc4)c3n2)n[nH]1` [Example 5, 9-[(1S)-1-(4-Fluorophenyl)ethyl]-N-(5-isopropoxy-1H-pyrazol-3-yl)-9H-purin-2-amine], the IC50 came out at 63 nM. In the case of `Fc1ccc(Cn2cnc3cc(Cl)c(Nc4cc(C5CC5)[nH]n4)nc32)cc1` [Example 18, 3-(4-Fluorobenzyl)-6-chloro-N-(5-cyclopropyl-1H-pyrazol-3-yl)-3H-imidazo[4,5-b]pyridin-5-amine], the IC50 was determined as 11 nM.
